Results reported in PubChem BioAssay AID179 (DTP/NCI, 2004).
The source made the active and inactive calls.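 The calls were made as follows: active = compounds giving half or more protection of infected cells from virus-caused growth loss, again on retest; inactive = the rest.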

Tested on: CEM cells HIV-1 protection, formazan growth assay
Experiment: NCI AIDS Antiviral Assay
Conditions: for IC50: measured here: growth of uninfected CEM cells
Summary of the method: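 Five concentrations of each compound were applied to infected and uninfected human CEM cells. Protection from HIV-1 was judged from growth measured with a soluble formazan assay.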

SMILES	EC50 [µM]	IC50 [µM]	outcome
c1cnc(SCc2nc3ccccc3o2)nc1	38	> 200	–
O=S(=O)(Oc1cccc2ccccc12)C(F)(F)F	> 200	120	–
CC(CC(=O)N(C)[C@H](C[C@@H](C)C(Cl)(Cl)Cl)c1nccs1)C(Cl)(Cl)Cl (stereo not given in full)	–	–	inactive
CCOC(=O)c1[nH]c2cccc3c2c1CC[C@H](NC(=O)C(F)(F)F)C3=O	> 200	> 200	–
COc1ccc(-c2nnc(CCCCCCCCc3nnc(-c4ccc(OC)cc4)n3N)n2N)cc1	> 200	> 200	–
Cc1ncc([N+](=O)[O-])n1CCNC(=O)Cn1ccnc1[N+](=O)[O-]	> 200	> 200	–
C=CCNC(=S)N/C=C(/C(=O)c1ccccc1)c1ccccc1	> 200	182	–
CC(C)(C)c1ccc(-c2nc3ccccc3c(=O)o2)cc1	> 200	38.9	–
Cc1ccc(/C=C(\C#N)C(=O)c2ccccc2)cc1	> 145	102	–
CCOC(=O)C1(c2ccccc2)CCNC(=O)CC1 (stereo not given)	> 955	> 955	–
O=C(O)c1cccc(C(=O)c2ccccc2)c1	> 200	> 200	–
CO/C=C/CCCN(C1CCCCC1)C(C#N)c1ccccc1 (stereo not given)	> 16.6	> 16.6	–
N[C@@H](CCC(=O)NCP(=O)(O)O)C(=O)O	> 200	> 200	–
CN(C)c1cccc2c(S(=O)(=O)NCCN)cccc12	> 200	174	–
O=C(O)CCSC(=O)Nc1cccc([N+](=O)[O-])c1	–	–	inactive
C/C(=N\NC(=S)N1CC2CCC(CC2)C1)c1cccc(C)n1	> 31.6	0.55	–
C=C1N(S(=O)(=O)c2ccc(C)cc2)C(=O)OCC12CCCC2	> 200	44.7	–
COC1OC(Cn2c(C)nc(Br)c2Br)C(O)C(O)C1O (stereo not given)	33.9	> 200	–
CCNC(=O)OCc1cnc(C)c(O)c1COC(=O)NCC	> 200	> 200	–
CCCCCCC1C=CCCN1 (stereo not given)	–	–	inactive
Cc1nn(C(=O)Cc2ccccc2)c2c1C(c1ccc3ccccc3c1O)SC(N)=N2 (stereo not given)	> 200	24	–
O=C(NNc1ccccc1)/C(=C/c1ccc2c(c1)OCO2)NC(=O)c1ccccc1	> 12.9	> 12.9	–
CC(=O)Nc1ccc(/C=C2\N=C(c3ccccc3)OC2=O)cc1	> 12.3	> 12.3	–
O=C(O)c1cc([N+](=O)[O-])cc([N+](=O)[O-])c1/C=C/n1c(=S)[nH]c2ccc([N+](=O)[O-])cc21	> 100	91.2	–
